Results on 4 compounds are retold here after patent publication US20230398130A1, “METHODS AND COMPOSITIONS FOR DIFFERENTIATING STEM CELLS” (Massachusetts Institute of Technology, priority 2020, published 2023).

The subject of assay [1] is ISC-enriched organoids. Description: Primary screen, 384-well 2.5-D organoid differentiation (ENR+CD, 6 days): basal lysozyme secretion (LYZ.NS). It counts as cell-based, murine. Particulars: for Dose.FC.LYZ.NS (log 2 fold change): vs plate median. The text has this:
(§1) High-throughput screening.

The subject of assay [2] is ISC-enriched organoids. Put plainly: Primary screen, 384-well 2.5-D organoid differentiation (ENR+CD, 6 days): carbachol-induced lysozyme secretion (LYZ.S). Particulars: primary screen; for Dose.FC.LYZ.S (log 2 fold change): vs plate median. It counts as cell-based, murine.
Description: as §1

In assay [3] the test system is ISC-enriched organoids. Put plainly: Primary screen, 384-well 2.5-D organoid differentiation (ENR+CD, 6 days, Target Selective Inhibitor Library, vs whole-plate median): ATP (CellTiter-Glo 3D, CTG). The conditions noted are these: for Dose.FC.CTG (log 2 fold change): vs plate median. (In general: Cellular ATP, detected with luciferase, serves as a proxy for viable cell number.)

[4] abbreviates: Dose 0.08 uM, primary screen, FC vs plate median.
Where [5] appears, read: Dose 0.08 uM, standard z score of FC.

In turn, `N#CSc1cc(SC#N)c(N)nc1N` [PR-619] had a Dose.FC.LYZ.NS with ISC-enriched organoids [1] (setting [4]) of 0.100 log 2 fold change. Further, the Z.LYZ.NS with ISC-enriched organoids [1] (setting [5]) worked out at 0.872. The “Z.LYZ.NS (standard z score)” value is listed as 0.448 in the assay with ISC-enriched organoids [1] (Dose 0.40 uM, primary screen); 0.495 in the assay on ISC-enriched organoids [1] (Dose 2.00 uM, primary screen); −1.687 in the assay with ISC-enriched organoids [1] (Dose 10.00 uM, primary screen). Moreover, the “Dose.FC.LYZ.NS (log 2 fold change)” value in the assay on ISC-enriched organoids [1] (Dose 0.40 uM, primary screen) is on record as 0.051; in the assay on ISC-enriched organoids [1] (Dose 2.00 uM, primary screen), 0.057; in the assay on ISC-enriched organoids [1] (Dose 10.00 uM, primary screen), −0.194. The compound also showed a Dose.FC.LYZ.S in the assay with ISC-enriched organoids [2] (Dose 0.08 uM, FC vs plate median) of 0.122 log 2 fold change. Besides, the “Dose.FC.LYZ.S (log 2 fold change)” value is 0.047 in the assay on ISC-enriched organoids [2] (Dose 0.40 uM), 0.081 in the assay on ISC-enriched organoids [2] (Dose 2.00 uM) and −0.193 with ISC-enriched organoids [2] (Dose 10.00 uM). For the same compound, the Dose.FC.CTG in the assay on ISC-enriched organoids [3] (setting [4]) was found to be 0.054 log 2 fold change. For the same compound, the Z.CTG in the assay on ISC-enriched organoids [3] (setting [5]) is recorded as 0.130. Also, the “Z.CTG (standard z score)” value was 0.266 with ISC-enriched organoids [3] (Dose 0.40 uM, primary screen); 0.053 in the assay on ISC-enriched organoids [3] (Dose 2.00 uM, primary screen); −0.764 with ISC-enriched organoids [3] (Dose 10.00 uM, primary screen). Besides, the “Dose.FC.CTG (log 2 fold change)” value in the assay with ISC-enriched organoids [3] (Dose 0.40 uM, primary screen) is 0.111; in the assay with ISC-enriched organoids [3] (Dose 2.00 uM, primary screen), 0.022; with ISC-enriched organoids [3] (Dose 10.00 uM, primary screen), −0.320.

For `Cl.NC(=O)c1cnc(N[C@@H]2CCCC[C@@H]2N)nc1Nc1cccc(-n2nccn2)c1` [PRT062607 (P505-15, BIIB057) HCl], the “Z.LYZ.NS (standard z score)” value in the assay with ISC-enriched organoids [1] (Dose 0.08 uM, primary screen) was 0.037; in the assay on ISC-enriched organoids [1] (Dose 0.40 uM, primary screen), 0.194; in the assay with ISC-enriched organoids [1] (Dose 2.00 uM, primary screen) it was −0.280; with ISC-enriched organoids [1] (Dose 10.00 uM, primary screen), −1.837. Also, the “Dose.FC.LYZ.NS (log 2 fold change)” value is given as 0.004 in the assay on ISC-enriched organoids [1] (Dose 0.08 uM, primary screen); 0.022 in the assay on ISC-enriched organoids [1] (Dose 0.40 uM, primary screen); −0.032 with ISC-enriched organoids [1] (Dose 2.00 uM, primary screen); −0.211 with ISC-enriched organoids [1] (Dose 10.00 uM, primary screen). In addition, the “Dose.FC.LYZ.S (log 2 fold change)” value is recorded as −0.033 with ISC-enriched organoids [2] (Dose 0.08 uM), 0.122 in the assay with ISC-enriched organoids [2] (Dose 0.40 uM), −0.123 in the assay with ISC-enriched organoids [2] (Dose 2.00 uM) and −0.298 in the assay on ISC-enriched organoids [2] (Dose 10.00 uM). Further, the “Z.CTG (standard z score)” value in the assay on ISC-enriched organoids [3] (Dose 0.08 uM, primary screen) was −0.219; in the assay with ISC-enriched organoids [3] (Dose 0.40 uM, primary screen), 0.191; in the assay on ISC-enriched organoids [3] (Dose 2.00 uM, primary screen), −0.179; in the assay with ISC-enriched organoids [3] (Dose 10.00 uM, primary screen) it was −0.788. In addition, the “Dose.FC.CTG (log 2 fold change)” value is −0.092 with ISC-enriched organoids [3] (Dose 0.08 uM, primary screen); 0.080 with ISC-enriched organoids [3] (Dose 0.40 uM, primary screen); −0.075 in the assay on ISC-enriched organoids [3] (Dose 2.00 uM, primary screen); −0.330 with ISC-enriched organoids [3] (Dose 10.00 uM, primary screen).

Take `COc1cc(Br)c(Nc2nc(-c3c(C)nc4ncccn34)cs2)c(Br)c1` [PTC-209]: the “Z.LYZ.NS (standard z score)” value is reported as 0.294 with ISC-enriched organoids [1] (Dose 0.08 uM, primary screen); −0.509 in the assay on ISC-enriched organoids [1] (Dose 0.40 uM, primary screen); −1.753 in the assay with ISC-enriched organoids [1] (Dose 2.00 uM, primary screen); −1.975 with ISC-enriched organoids [1] (Dose 10.00 uM, primary screen). Also, the “Dose.FC.LYZ.NS (log 2 fold change)” value was 0.034 with ISC-enriched organoids [1] (Dose 0.08 uM, primary screen); −0.058 in the assay on ISC-enriched organoids [1] (Dose 0.40 uM, primary screen); −0.201 with ISC-enriched organoids [1] (Dose 2.00 uM, primary screen); −0.227 with ISC-enriched organoids [1] (Dose 10.00 uM, primary screen). Besides, the “Dose.FC.LYZ.S (log 2 fold change)” value in the assay on ISC-enriched organoids [2] (Dose 0.08 uM) is recorded as 0.007; in the assay on ISC-enriched organoids [2] (Dose 0.40 uM), 0.045; with ISC-enriched organoids [2] (Dose 2.00 uM), −0.289; with ISC-enriched organoids [2] (Dose 10.00 uM), −0.300. The “Z.CTG (standard z score)” value in the assay with ISC-enriched organoids [3] (Dose 0.08 uM, primary screen) is recorded as −0.259; in the assay on ISC-enriched organoids [3] (Dose 0.40 uM, primary screen), −0.495; with ISC-enriched organoids [3] (Dose 2.00 uM, primary screen), −3.397; with ISC-enriched organoids [3] (Dose 10.00 uM, primary screen) it was −3.708. Moreover, the “Dose.FC.CTG (log 2 fold change)” value is −0.108 with ISC-enriched organoids [3] (Dose 0.08 uM, primary screen); −0.207 with ISC-enriched organoids [3] (Dose 0.40 uM, primary screen); −1.422 in the assay on ISC-enriched organoids [3] (Dose 2.00 uM, primary screen); −1.553 in the assay with ISC-enriched organoids [3] (Dose 10.00 uM, primary screen).

Take `CCOC(=O)c1ccc(N2NC(=O)/C(=C/c3ccc([N+](=O)[O-])o3)C2=O)cc1` [PYR-41]: the “Z.LYZ.NS (standard z score)” value was found to be 1.305 in the assay on ISC-enriched organoids [1] (Dose 0.08 uM, primary screen); 0.777 with ISC-enriched organoids [1] (Dose 0.40 uM, primary screen); 0.568 in the assay with ISC-enriched organoids [1] (Dose 2.00 uM, primary screen); 0.861 with ISC-enriched organoids [1] (Dose 10.00 uM, primary screen). Besides, the “Dose.FC.LYZ.NS (log 2 fold change)” value with ISC-enriched organoids [1] (Dose 0.08 uM, primary screen) is on record as 0.150; with ISC-enriched organoids [1] (Dose 0.40 uM, primary screen), 0.089; with ISC-enriched organoids [1] (Dose 2.00 uM, primary screen) it was 0.065; in the assay on ISC-enriched organoids [1] (Dose 10.00 uM, primary screen), 0.099. The “Dose.FC.LYZ.S (log 2 fold change)” value with ISC-enriched organoids [2] (Dose 0.08 uM) turned out to be 0.193; in the assay with ISC-enriched organoids [2] (Dose 0.40 uM), 0.076; with ISC-enriched organoids [2] (Dose 2.00 uM), 0.049; in the assay on ISC-enriched organoids [2] (Dose 10.00 uM), 0.129. The “Z.CTG (standard z score)” value with ISC-enriched organoids [3] (Dose 0.08 uM, primary screen) came out at 0.609; in the assay on ISC-enriched organoids [3] (Dose 0.40 uM, primary screen), 0.762; with ISC-enriched organoids [3] (Dose 2.00 uM, primary screen), 0.385; with ISC-enriched organoids [3] (Dose 10.00 uM, primary screen), 0.229. The “Dose.FC.CTG (log 2 fold change)” value in the assay on ISC-enriched organoids [3] (Dose 0.08 uM, primary screen) was 0.255; in the assay with ISC-enriched organoids [3] (Dose 0.40 uM, primary screen) it was 0.319; with ISC-enriched organoids [3] (Dose 2.00 uM, primary screen), 0.161; in the assay with ISC-enriched organoids [3] (Dose 10.00 uM, primary screen), 0.096.
